Reference: patent US11325892B2, “Compounds and methods for treating cancer” (Mayo Foundation for Medical Education and Research, priority 2014, dated 2022)

Assays:
[1] = test system: PARP cleavage and CHOP expression in THJ29T and THJ16T; test: Western blot for PARP cleavage and CHOP expression, combinatorial therapy; type: cell-based; conditions: EC50 doses, 48H
Procedure: (§1) Protein extraction and western blot analysis was performed as previously described (Copland J A, Marlow L A, Kurakata S, et al. Novel high-affinity PPARgamma agonist alone and in combination with paclitaxel inhibits human anaplastic thyroid carcinoma tumor growth via p21WAF1/CIP1. Oncogene. Apr 13 2006; 25(16):2304-2317). Primary antibodies included SCD1 (Sigma-Aldrich, #HPA012107), BiP (Cell Signaling, #3183), CHOP (Cell Signaling, #2895), sXBP1(Santa Cruz Biotechnology, #sc-7160), PARP(Cell Signaling, #9542), and β-actin (Sigma-Aldrich, #A5441).
THJ29T and THJ16T treated for 48H with EC50 doses of either A939572 or MF-438 in combination with either carfilzomib or bortezomib were probed for PARP cleavage and CHOP expression, both markers indicative of apoptosis (FIGS. 14A-B, 15A-B). […] Cell death was additionally examined via flow cytometry using propidium iodide staining. THJ29T and THJ16T were treated for 48H with EC50 doses of either A939572 or MF-438 in combination with either carfilzomib or bortezomib prior to staining and analysis.

[2] = test system: THJ16T ATC cell xenograft; test: THJ16T xenograft model; type: in vivo, female athymic nu/nu mice
Procedure: Formalin-fixed, paraffin-embedded subject tissues were mounted on slides, blocked with Diluent (DakoCytomation) for 30 min, and then probed for SCD (Sigma-Aldrich, #HPA012107). IHC scoring was performed as previously described (von Roemeling C A, Marlow L A, Wei J J, et al. Stearoyl-CoA desaturase 1 is a novel molecular therapeutic target for clear cell renal cell carcinoma. Clin Cancer Res. May 1 2013; 19(9):2368-2380). Cases where insufficient tumor tissue presented were excluded. 20× images were obtained using Scanscope XT and Imagescope software.
1×10^6 THJ16T ATC cells were subcutaneously injected in female athymic nu/nu mice (Harlan Laboratories). Treatment was initiated once tumor volumes reached 50-100 mm^3. MF-438 was suspended in 0.5% carboxymethyl-cellulose containing strawberry drink flavoring(0.1 g/mL) in sterilized H2O at 25 mg/kg in a 100 μl dose, and administered via oral gavage once daily. Carfilzomib was solubilized in DMSO (4% of FC), suspended in 100% corn oil at 4 mg/kg per 50 uL dose and administered via intraperitoneal injection twice weekly on consecutive days. Tumor volume(0.5236[L*W*H]) and body weight were measured 2×/week. N=10 mice/group.
MF-438 was tested in combination with carfilzomib in vivo in a THJ16T xenograft model. […] J Clin Endocrinol Metab. 2010; 95(12):5338-47). […] Saline was administered as necessary. These adverse events resolved 24-48 hours after the second administration of carfilzomib. […] However, no other significant adverse events were observed. […] IHC analysis of tumors resected from each treatment group was performed.

ATC cells = test: Proliferative dose response of thyroid cells; type: cell-based; conditions: THJ29T, THJ16T, and KTC2; 72H
Procedure: (§2) Cells were seeded at 5,000 cells/well in clear-bottom 96-well plates in triplicate in Maintenance Media. Drug treatment was applied at a concentration of 1:1000 in reduced serum (3%) Maintenance Media. After 72 hours, cells were washed with PBS, and stored at −80° C. prior to analysis using CyQuant® Proliferation Analysis Kit (Invitrogen) as per manufacturers' protocol for relative fluorescence units. Alternatively, cells were plated 2×10^5/well in 12-well plates (Midwest Scientific) in triplicate prior to drug treatment. After 120 hour treatment, cell number was established using a Coulter Particle Counter (Beckman). Or, cells were plated (0.5 or 1×10^5/well) in 24-well plates (Midwest Scientific), 3×. After 72 hour treatment, cell number established using Coulter Particle Counter (Beckman). Oleic acid-albumin (Sigma Aldrich) was added to media at 5 μM, and was applied adjuvant to drug treatment. Drug stocks were prepared in DMSO (Sigma) at 1000×. EC50 dosing per cell line was calculated using CalcuSyn® analytical software.
The efficacy of pharmacologic inhibition of this enzyme on tumor cell proliferation after a 72H treatment was determined, using A939572-a commercially available small molecule SCD1 inhibitor (Xin Z, Zhao H, Serby M D, Liu B, Liu M, Szczepankiewicz B G, Nelson L T, Smith H T, Suhar T S, Janis R S, Cao N, Camp H S, Collins C A, Sham H L, Surowy T K, Liu G. Discovery of piperidine-aryl urea-based stearoyl-CoA desaturase 1 inhibitors. Bioorg Med Chem Lett. 2008; 18(15):4298-302). […] Despite conspicuous SCD1 expression in 4 of the 5 FTC cells tested, no response to A939572 was observed (FIG. 10D).
THJ29T, THJ16T, and KTC2 were treated with carfilzomib (FIG. 12A) or bortezomib for 72H in order to establish EC50 values. […] Anti-proliferative drug synergy was evaluated in THJ29T and THJ16T treated with either A939572 or MF-438 in combination with either bortezomib or carfilzomib for 48H. Synergy was assessed using CalcuSyn analytical software, which determines the combination index (CI) based on the Chou-Talalay method where CI values >1 represent an antagonistic effect and values <1 represent synergy, and lower values signify enhanced synergy (Chou T C, Talalay P. Analysis of Combined Drug Effects—a New Look at a Very Old Problem. Trends in Pharmacological Sciences. 1983; 4(11):450-4).

[3] = test system: A498, ACHN, and Caki1 cell lines; test: Oleic acid (OA) rescue assay of cell proliferation in ccRCC cells; type: cell-based; conditions: EC50 dose of compound with OA (5 μg/μL); all three cell lines
Procedure: as §2
A498, ACHN, and Caki1 cell lines were treated with the EC50 dose of each MF-438, ChemBL375265, SSI-1, SSI-4, SSI-3, and SSI-2 with or without concomitant application of OA (5 μg/μL). […] Representative images of A498 cell morphology and density treated with each compound +/−OA are shown in (FIG. 2B).

kidney cancer cells = test: Combination with mTor inhibitor temsirolimus, cell proliferation; type: cell-based; conditions: different concentrations with 0, 0.1, 1, and 10 nM temsirolimus
[4] = test system: BiP and CHOP expression in A498 and ACHN cells; test: Western blot for UPR markers BiP and CHOP; type: cell-based; conditions: EC50 dose; both cell lines; blocked with concomitant OA treatment
Procedure: as §1
(§3) Activating transcription factor 6 (ATF6) is a key regulator of the unfolded protein response (UPR) that recognizes unfolded protein response elements (UPRE) in the promoter regions of several key mediators of the ER stress response, initiating their transcription (Wang Y, Shen J, Arenzana N, Tirasophon W, Kaufman R J, Prywes R. Activation of ATF6 and an ATF6 DNA binding site by the endoplasmic reticulum stress response. J Biol Chem. Sep. 1, 2000; 275(35):27013-27020). A498 and ACHN transfected with an ATF6-UPRE luciferase reporter were treated with the EC50 doses of ChemBL375265, SSI-1, SSI-4, SSI-3, and SSI-2 with or without OA supplementation were evaluated in order to determine whether the identified compounds could recapitulate activation of the UPR. […] Upregulation of the UPR markers BiP (heat shock 70 kDa protein, GRP78) and CHOP (damage inducible transcript 3, DDIT3) was evaluated by Western blot in A498 and ACHN cells treated with the EC50 doses of ChemBL375265, SSI-1, SSI-4, SSI-3, and SSI-2 with or without OA supplementation.

[5] = test system: ATF6-UPRE luciferase reporter in A498 and ACHN cells; test: ATF6-UPRE luciferase reporter assay; type: cell-based; conditions: EC50 dose
Procedure: A498 and ACHN cells were transiently transfected with p5×ATF6-GL3 UPR luciferase reporter (Addgene plasmid#11976) and pRL-CMV-renilla (Promega) using Lipofectamine 2000 (Invitrogen). Cells were treated as indicated for 24H, prior to collection and analysis using Promega Dual Luciferase assay kit per manufacturer's specifications. Luciferase activity was measured using Veritas Luminometer (Promega); and results are reported as relative luminescence.
as §3

[6] = test system: HK2, a transformed renal epithelial cell line; test: High-throughput proliferative screen, non-cancerous cells; type: cell-based
Procedure: as §2
In order to identify potential SCD1 inhibitors, a high-throughput proliferative-based screening method was used, with four ccRCC cell lines including A498, ACHN, Caki1, and Caki2. The SCD1 inhibitor MF-438 was included as a positive control. Known compounds ChemBL375265 (Liu G, Lynch J K, Freeman J, et al. Discovery of potent, selective, orally bioavailable stearoyl-CoA desaturase 1 inhibitors. Journal of medicinal chemistry. Jun. 28, 2007; 50(13): 3086-3100) (SetA.100) and SAR707 (Voss M D, Zoller G, Matter H, et al. Discovery and pharmacological characterization of SAR707 as novel and selective small molecule inhibitor of stearoyl-CoA desaturase (SCD1). European journal of pharmacology. May 5, 2013; 707(1-3): 140-146) (TC03.100) were included as single-blinded positive controls, and are indicated with an asterisk (*). […]

SCD1 = target: T1, SCD1 (Homo sapiens, UniProt O00767); conditions: known inhibitors; cited from earlier work
T1 sequence (O00767 1-359): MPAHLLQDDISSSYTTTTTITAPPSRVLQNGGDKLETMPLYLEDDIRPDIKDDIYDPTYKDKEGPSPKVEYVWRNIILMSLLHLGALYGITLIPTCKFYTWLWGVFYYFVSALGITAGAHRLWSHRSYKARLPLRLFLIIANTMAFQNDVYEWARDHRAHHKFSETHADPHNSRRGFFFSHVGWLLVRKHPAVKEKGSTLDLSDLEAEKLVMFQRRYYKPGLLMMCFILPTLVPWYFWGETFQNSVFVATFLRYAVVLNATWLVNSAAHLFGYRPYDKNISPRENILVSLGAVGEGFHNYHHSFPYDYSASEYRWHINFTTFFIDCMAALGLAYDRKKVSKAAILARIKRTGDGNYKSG

[7] = 24H, both cell lines A498 and ACHN, completely blocked with OA

| Structure (SMILES) | EC50 (ATC cells) | rescue of cell proliferation with OA [3] | BiP and CHOP expression [4] | luciferase activity [5, 7] | other results |
| --- | --- | --- | --- | --- | --- |
| CC(C)C[C@H](NC(=O)[C@H](CCc1ccccc1)NC(=O)CN1CCOCC1)C(=O)N[C@@H](Cc1ccccc1)C(=O)N[C@@H](CC(C)C)C(=O)[C@@]1(C)CO1 [carfilzomib] | low nanomolar dose range |  |  |  | PARP cleavage as compared to DMSO control [1]: significant PARP cleavage; reduction in mean tumor burden as compared to the placebo control ([2]; MF-438 25 mg/kg oral once daily, carfilzomib 4 mg/kg i.p. twice weekly): 21%; tumor response / mean tumor volume course ([2]; THJ16T xenograft): temporarily plateau; adverse events ([2]; mice bearing THJ16T xenograft): Dehydration and acute inflammation; survivin expression (IHC) ([2]; mouse, in vivo): induced survivin expression; CD31 (IHC), tumor vascularization ([2]; versus placebo control): trend toward decreased CD31; ki67 staining (IHC of resected tumors) ([2]; versus placebo control): trend of decreased ki67 staining; cleaved caspase-3 (IHC) ([2]; versus placebo control, only the combination group achieved statistical significance): increased cleaved caspase-3; HERPUD1 (IHC), marker for ER stress ([2]; versus placebo control, statistically significant combinatorial values): Increased HERPUD1 |
| O=C(Nc1ccc(OCc2ccccc2)nc1)N1CCN(C(=O)c2ccccc2C(F)(F)F)CC1 [SSI-2, 2-(benzyloxy)-5-{[hydroxy({4-[2-(trifluoromethyl)benzoyl]piperazin-1-yl})methyl]amino}-1,2-dihydropyridin-2-ylium-1-ide] |  | Near total rescue of cell proliferation | strongly induced both BiP and CHOP expression | significant upregulation of luciferase activity | kidney cancer cell proliferation (kidney cancer cells): reduced kidney cancer cell proliferation; reduction in cell proliferation [6]: approximately 20% |
| CNC(=O)c1ccccc1OCC(=O)N1CCN(C(=O)c2ccccc2C(F)(F)F)CC1 [SSI-1, N-Methyl-2-(2-oxo-2-{4-[2-(trifluoromethyl)benzoyl]piperazin-1-yl}ethoxy)benzamide] |  | Near total rescue of cell proliferation | strongly induced both BiP and CHOP expression | significant upregulation of luciferase activity |  |
| O=C(NCc1ccnc(OCc2ccccc2)c1)N1CCN(C(=O)c2ccccc2C(F)(F)F)CC1 [SSI-3] |  | Near total rescue of cell proliferation | strongly induced both BiP and CHOP expression |  | luciferase activity ([5]; ACHN cells): induced reversible luciferase activity |
| CNC(=O)c1ccc(N2CCC(Oc3ccccc3Cl)CC2)nn1 [ChemBL375265] |  | Near total rescue of cell proliferation | strongly induced both BiP and CHOP expression | significant upregulation of luciferase activity | IC50 (SCD1): 0.4 µM |
| CC(C)C[C@H](NC(=O)[C@H](Cc1ccccc1)NC(=O)c1cnccn1)B(O)O [bortezomib] | low nanomolar dose range |  |  |  |  |
